In patent US20080280833A1, “Therapeutic Peptides Derived from Urokinase Plasminogen Activator Receptor” (priority 2005, published 2008):

What was measured:
LB6 clone 19 cells [1] = assay: 125I-VN cell binding, LB6 clone 19; parameters: species or system mouse; settings: 125I-VN 0.5 nM, on ice 90 minutes
Method: (§1) VN was iodinated using Iodogen (Pierce Chemical Co.) at a specific activity of 30-60×10^6 cpm/mg. Briefly, 10 μg of VN dissolved in 0.1 M tris pH 7.6, 0.1% (v/v) Tween 80, were incubated with 0.5 μCi ^125Iodine for 15 minutes at room temperature, in a volume of 100 μl. The reaction was stopped by adding 1 ml of stop/elution buffer, 0.1 M tris pH 8.1, 0.1% (v/v) Chaps and 50 μl of N-acetyl tyrosine (10 mg/ml in 0.1 M tris pH 7.4). Labeled VN was separated from unbound ^125Iodine by gel chromatography in PD-10 column (Pharmacia) in the stop/elution buffer.
(§2) Cells were seeded in 96-well culture dishes treated overnight with 1.5% gelatin in PBS pH 7.4, grown to confluence in DMEM plus 10% FCS, then serum-starved for 24 hours in DMEM. Total binding was determined by incubating the cells on ice for 90 minutes in binding buffer (DMEM containing 0.1% (w/v) BSA and 10 mM Hepes pH 7.4) plus 0.5 nM ^125I-VN. Nonspecific binding was measured by competition with a 100 fold excess of unlabeled VN. At the end of the incubation time, the cells were washed 3 times with ice-cold binding buffer and once with ice-cold PBS, then lysed in a solution of 1% SDS, 1% Triton X-100 and the associated radioactivity counted. Cell number was determined in 6 wells per lines cultured in parallel, and the results were standardized as cpm/10^5 cells.

NIH 3T3-D1HD3 cells = assay: Chemotaxis assay, NIH 3T3-D1HD3 cells; format: cell-based, mouse
Method: (§3) Chemotaxis assay was performed as described (Degryse et al., 1999, 2001a, 2001b) with modified Boyden chambers. Filters (5 μm pore size, Neuro Probe, Gaithersburg, Md.) were treated with collagen I (100 μg/ml) and fibronectin (10 μg/ml, Roche).≈40-50,000 cells in serum-free DMEM were added to the upper well and the chemoattractants tested added to the lower well. When present, antibodies, or inhibitors were added in both wells. After overnight migration at 37° C., cells remaining on the upper surface of filters were scraped off and filters were fixed in methanol and stained in a solution of 10% (w/v) crystal violet in 20% (v/v) methanol. The experiments were performed at least twice in triplicate and the results, expressed as fold over control, are the mean ±SD of the number of cells counted in ten high power fields per filter. Random cell migration, i.e. migration in the absence of chemoattractant, was given the arbitrary value of 100%.

RSMC = assay: Immunofluorescence microscopy, actin cytoskeleton and cell morphology; format: cell-based, rat; settings: 30 minutes at 37° C., peptide 1 pM or VN 1 μg/ml
Method: (§4) As previously described (Degryse et al., 1999; 2004) 15,000-25,000 cells (20-40% confluence), were seeded on glass coverslips in 2 cm^2 well, cultured for 24 hours in DMEM plus 10% FCS, washed with PBS and cultured for another 24 hours without FCS. After stimulation, RSMC were fixed for 20 min at RT with 3% paraformaldehyde, 2% sucrose in PBS pH 7.5, washed 3 times with PBS-BSA 0.2%, permeabilized with 20 mM hepes pH 7.4, 300 mM saccharose, 50 mM NaCl, 3 mM MgCl2, 0.5% (v/v) Triton X-100 for 3 min at 4° C., and washed 3 times with PBS-BSA 0.2%. RSMC were incubated in PBS-BSA 2% for 15 min at 37° C., then with anti-Stat1 primary antibodies for 30 min at 37° C., washed 3 times with PBS-BSA 0.2%, and further incubated with PBS-BSA 2% for 15 min at 37° C. Cells were stained with the secondary TRITC-antibody and with FITC-phalloidin for visualization of filamentous actin, for 30 min at 37° C. DAPI (4′,6-diamidino-2-phenylindole, Roche) was used to label the nucleus. Finally, after 3 washes with PBS-BSA 0.2%, one with distilled water, coverslips were mounted with 20% (w/v) Mowiol. Fluorescence Photographs were taken with a Zeiss Axiophot microscope

NIH 3T3 cells = assay: Chemotaxis assay, NIH 3T3 cells; format: cell-based, mouse; settings: NIH 3T3, VN 1 μg/ml
Method: as §3

LB6-D1HD3 cells [2] = assay: 125I-VN cell binding, LB6-D1HD3; parameters: species or system mouse; settings: 125I-VN 0.5 nM, on ice 90 minutes
Method: as §1, §2

HEK-293 cells = assay: Chemotaxis assay, HEK-293 cells; format: cell-based, human; settings: HEK-293, VN 1 μg/ml
Method: as §3

LB6-D1D2 cells [3] = assay: 125I-VN cell binding, LB6-D1D2; parameters: species or system mouse; settings: 125I-VN 0.5 nM, on ice 90 minutes
Method: as §1, §2

NIH 3T3-uPAR cells = assay: Chemotaxis assay, NIH 3T3-uPAR cells; format: cell-based, mouse; settings: VN 1 μg/ml
Method: as §3

Stat1 = assay: Immunofluorescence microscopy, Stat1 distribution; format: cell-based, rat; settings: RSMC, 30 minutes at 37° C., peptide 1 pM or VN 1 μg/ml
Method: as §4
To quantify the activation of Stat1, random pictures were taken and nuclei positively stained for Stat1 were counted and expressed in percent.

[4] = system: human HT1080 fibrosarcoma cells; assay: Matrigel invasion assay; format: cell-based; settings: substance alone, 24 hours at 37° C.
LB6-D1HD3 cells [5] = assay: Chemotaxis assay, LB6-D1HD3 cells (uPAR lacking domain 2); format: cell-based, mouse
Method: as §3

LB6 clone 19 cells [6] = assay: Chemotaxis assay, LB6 clone 19 cells (wild-type human uPAR); format: cell-based, mouse; settings: VN 5 μg/ml
Method: as §3

HEK-293-uPAR cells = assay: Chemotaxis assay, HEK-293-uPAR cells; format: cell-based, human
Method: as §3

LB6-D1D2 cells [7] = assay: Chemotaxis assay, LB6-D1D2 cells (uPAR lacking domain 3); format: cell-based, mouse
Method: as §3

LB6 cells = assay: Chemotaxis assay, modified Boyden chambers, LB6 cells; format: cell-based, mouse
Method: as §3

For “VN: vitronectin purified from human plasma”, the “VN binding to cells” value (LB6 clone 19 cells [1]) was “bound”, the VN-dependent cell migration (NIH 3T3-D1HD3 cells; NIH 3T3-D1HD3, VN 1 μg/ml) was 100 ± 4.0 % of control and the stimulation of chemotaxis (NIH 3T3-D1HD3 cells; NIH3T3 cells transfected with D1HD3-uPAR, even at 10 μg/ml) was “failed to stimulate”. For the same substance, the “cell morphology and actin cytoskeleton organization” value (RSMC) was “induced similar changes”, the VN-dependent cell migration (NIH 3T3 cells) was 222.7 ± 4.8 % of control and the “VN binding to cells” value (LB6-D1HD3 cells [2]) was “poorly”. For the same substance, the VN-dependent cell migration (HEK-293 cells) was 199.1 % of control, the cell migration (HEK-293 cells) was 210.84 ± 26.95 % of control and the “VN binding to cells” value (LB6-D1D2 cells [3]) was “poorly”. For the same substance, the VN-dependent cell migration (NIH 3T3-uPAR cells) was 397 ± 11.1 % of control, the “Stat1 activation and translocation into the nucleus” value (Stat1) was “reproduced this effect on Stat1 localization” and the “stimulation of Matrigel invasiveness of HT1080 cells” value [4] was “stimulate”. For the same substance, the VN-dependent cell migration (LB6-D1HD3 cells [5]; LB6-D1HD3, VN 5 μg/ml) was 102 ± 5.0 % of control, the stimulation of chemotaxis (LB6-D1HD3 cells [5]; LB6 cells transfected with D1HD3-uPAR, even at 10 μg/ml) was “failed to stimulate” and the VN-dependent cell migration (LB6 clone 19 cells [6]; LB6 clone 19, wild-type uPAR) was 906 ± 22.8 % of control. For the same substance, the “enhancement of VN-directed cell migration of LB6 clone 19 compared to untransfected LB6 cells” value (LB6 clone 19 cells [6]) was 3.3 fold, the “chemotactic effect of VN in HEK-293-uPAR relative to untransfected HEK-293 cells” value (HEK-293-uPAR cells) was 2 fold and the VN-dependent cell migration (HEK-293-uPAR cells; HEK-293-uPAR, VN 1 μg/ml) was 394.3 % of control. For the same substance, the cell migration (HEK-293-uPAR cells; HEK-293-uPAR, VN 1 μg/ml) was 417.25 ± 4.64 % of control, the VN-dependent cell migration (LB6-D1D2 cells [7]; LB6-D1D2, VN 5 μg/ml) was 280 ± 6.0 % of control and the “maximal stimulation of chemotaxis” value (LB6-D1D2 cells [7]; LB6-D1D2 cells, at 1 μg/ml) was “about four-fold”. The VN-dependent cell migration (LB6 cells; LB6 cells, VN 5 μg/ml) was 274 ± 3.8 % of control and the stimulation of chemotaxis (LB6 cells; untransfected parental LB6 cells) was 2.5 fold.
